Source: ChEMBL document CHEMBL1201862, “PubChem BioAssay data set” (2004)
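Following 48 hours of exposure in 96-well plates, responses at five concentrations were used to interpolate endpoints linearly. The concentration for 50% growth inhibition is given as GI50.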 Calls of active or inactive are those of the source. Cut-off read from the data, not from the text of the source: active = GI50 up to about 1.1 µM and inactive = higher.

Legend:
Experiment in all cases: DTP human tumour cell line panel, 48 h
786-0 = system: 786-0
IGROV-1 = system: IGROV-1
KM12 = system: KM12
LOX IMVI = system: LOX IMVI
M14 = system: M14
MCF7 = system: MCF7
MDA-N = system: MDA-N
MOLT-4 = system: MOLT-4
Malme-3M = system: Malme-3M
NCI-H226 = system: NCI-H226
NCI/ADR-RES = system: NCI/ADR-RES
OVCAR-5 = system: OVCAR-5
PC-3 = system: PC-3
RPMI-8226 = system: RPMI-8226
SK-MEL-5 = system: SK-MEL-5
SN12C = system: SN12C
SNB-19 = system: SNB-19
SW-620 = system: SW-620
UACC-62 = system: UACC-62
UO-31 = system: UO-31

Question: Which GI50 (786-0) does the source give for O=C1NC2c3c(I)sc(I)c3C(=O)C2O1 (stereo unspecified) here?
Answer: 7.13 µM (inactive)

Question: What about the GI50 (IGROV-1) of the same compound?
Answer: 2.93 µM (inactive)

Question: And the GI50 (KM12)?
Answer: 11.6 µM (inactive)

Question: And the GI50 (LOX IMVI)?
Answer: 2.16 µM (inactive)

Question: And the GI50 (M14)?
Answer: 2.07 µM (inactive)

Question: And the GI50 (MCF7)?
Answer: 4.58 µM (inactive)

Question: And the GI50 (MDA-N)?
Answer: 2.96 µM (inactive)

Question: What about the GI50 (MOLT-4) of the same compound?
Answer: 3.58 µM (inactive)

Question: What about the GI50 (Malme-3M) of the same compound?
Answer: 2.23 µM (inactive)

Question: And the GI50 (NCI-H226)?
Answer: 5.55 µM (inactive)

Question: And the GI50 (NCI/ADR-RES)?
Answer: 6.84 µM (inactive)

Question: What about the GI50 (OVCAR-5) of the same compound?
Answer: 14.3 µM (inactive)

Question: What about the GI50 (PC-3) of the same compound?
Answer: 6.9 µM (inactive)

Question: What about the GI50 (RPMI-8226) of the same compound?
Answer: 8.15 µM (inactive)

Question: What about the GI50 (SK-MEL-5) of the same compound?
Answer: 2.46 µM (inactive)

Question: And the GI50 (SN12C)?
Answer: 4.27 µM (inactive)

Question: And the GI50 (SNB-19)?
Answer: 13.2 µM (inactive)

Question: And the GI50 (SW-620)?
Answer: 2.82 µM (inactive)

Question: What about the GI50 (UACC-62) of the same compound?
Answer: 8.99 µM (inactive)

Question: And the GI50 (UO-31)?
Answer: 3.82 µM (inactive)

Question: With C1=CC2=CC=CC3c4nc5ccc6ccccc6c5nc4C(=C1)C23 (stereo unspecified) as the compound, how does the GI50 (786-0) read?
Answer: > 100 µM (inactive)

Question: And the GI50 (IGROV-1)?
Answer: > 100 µM (inactive)

Question: What about the GI50 (KM12) of the same compound?
Answer: > 100 µM (inactive)

Question: What about the GI50 (LOX IMVI) of the same compound?
Answer: > 100 µM (inactive)

Question: And the GI50 (M14)?
Answer: > 100 µM (inactive)

Question: What about the GI50 (MCF7) of the same compound?
Answer: > 100 µM (inactive)

Question: What about the GI50 (MDA-N) of the same compound?
Answer: > 100 µM (inactive)

Question: What about the GI50 (MOLT-4) of the same compound?
Answer: > 100 µM (inactive)

Question: And the GI50 (Malme-3M)?
Answer: > 100 µM (inactive)

Question: What about the GI50 (NCI-H226) of the same compound?
Answer: > 100 µM (inactive)

Question: And the GI50 (NCI/ADR-RES)?
Answer: > 100 µM (inactive)

Question: And the GI50 (OVCAR-5)?
Answer: > 100 µM (inactive)

Question: What about the GI50 (PC-3) of the same compound?
Answer: > 100 µM (inactive)

Question: What about the GI50 (RPMI-8226) of the same compound?
Answer: > 100 µM (inactive)

Question: And the GI50 (SK-MEL-5)?
Answer: > 100 µM (inactive)

Question: What about the GI50 (SN12C) of the same compound?
Answer: > 100 µM (inactive)

Question: What about the GI50 (SNB-19) of the same compound?
Answer: > 100 µM (inactive)

Question: And the GI50 (SW-620)?
Answer: > 100 µM (inactive)

Question: And the GI50 (UACC-62)?
Answer: > 100 µM (inactive)

Question: And the GI50 (UO-31)?
Answer: > 100 µM (inactive)

Question: How did the GI50 (786-0) turn out when CC1=CC2C3(C)C(C)(C(C)=CP3(=O)c3c(C(C)C)cc(C(C)C)cc3C(C)C)C1P2(=O)c1c(C(C)C)cc(C(C)C)cc1C(C)C (stereo unspecified) was run?
Answer: 2.12 µM (inactive)

Question: And the GI50 (IGROV-1)?
Answer: 1.98 µM (inactive)

Question: What about the GI50 (KM12) of the same compound?
Answer: 1.78 µM (inactive)

Question: What about the GI50 (LOX IMVI) of the same compound?
Answer: 1.58 µM (inactive)

Question: What about the GI50 (M14) of the same compound?
Answer: 1.92 µM (inactive)

Question: What about the GI50 (MCF7) of the same compound?
Answer: 2.26 µM (inactive)

Question: And the GI50 (MDA-N)?
Answer: 2.21 µM (inactive)

Question: And the GI50 (MOLT-4)?
Answer: 1.66 µM (inactive)

Question: What about the GI50 (Malme-3M) of the same compound?
Answer: 2.17 µM (inactive)

Question: And the GI50 (NCI-H226)?
Answer: 2.23 µM (inactive)

Question: What about the GI50 (NCI/ADR-RES) of the same compound?
Answer: 2.07 µM (inactive)

Question: What about the GI50 (OVCAR-5) of the same compound?
Answer: 2.06 µM (inactive)

Question: And the GI50 (PC-3)?
Answer: 2.7 µM (inactive)

Question: What about the GI50 (RPMI-8226) of the same compound?
Answer: 0.916 µM (active)

Question: And the GI50 (SK-MEL-5)?
Answer: 1.48 µM (inactive)

Question: What about the GI50 (SN12C) of the same compound?
Answer: 2.58 µM (inactive)

Question: What about the GI50 (SNB-19) of the same compound?
Answer: 3.84 µM (inactive)

Question: And the GI50 (SW-620)?
Answer: 3.08 µM (inactive)

Question: What about the GI50 (UACC-62) of the same compound?
Answer: 1.37 µM (inactive)

Question: And the GI50 (UO-31)?
Answer: 1.87 µM (inactive)

Question: With [O-][n+]1nc(N2CCOCC2)nc2ccccc21 as the compound, how does the GI50 (786-0) read?
Answer: > 100 µM (inactive)

Question: And the GI50 (IGROV-1)?
Answer: > 100 µM (inactive)

Question: What about the GI50 (KM12) of the same compound?
Answer: > 100 µM (inactive)

Question: And the GI50 (LOX IMVI)?
Answer: > 100 µM (inactive)

Question: What about the GI50 (M14) of the same compound?
Answer: > 100 µM (inactive)

Question: What about the GI50 (MCF7) of the same compound?
Answer: > 100 µM (inactive)

Question: What about the GI50 (MDA-N) of the same compound?
Answer: > 100 µM (inactive)

Question: And the GI50 (MOLT-4)?
Answer: > 100 µM (inactive)

Question: What about the GI50 (Malme-3M) of the same compound?
Answer: > 100 µM (inactive)

Question: And the GI50 (NCI-H226)?
Answer: > 100 µM (inactive)

Question: And the GI50 (NCI/ADR-RES)?
Answer: > 100 µM (inactive)

Question: What about the GI50 (OVCAR-5) of the same compound?
Answer: > 100 µM (inactive)

Question: And the GI50 (PC-3)?
Answer: > 100 µM (inactive)

Question: And the GI50 (RPMI-8226)?
Answer: > 100 µM (inactive)

Question: And the GI50 (SN12C)?
Answer: > 100 µM (inactive)

Question: And the GI50 (SNB-19)?
Answer: > 100 µM (inactive)

Question: And the GI50 (SW-620)?
Answer: > 100 µM (inactive)

Question: What about the GI50 (UACC-62) of the same compound?
Answer: > 100 µM (inactive)

Question: What about the GI50 (UO-31) of the same compound?
Answer: > 100 µM (inactive)

Question: Which results are given for COc1cc(C)c(/C=C2/N=C(c3ccccc3)OC2=O)c([N+](=O)[O-])c1OC?
Answer: GI50 (786-0): > 100 µM (inactive); GI50 (IGROV-1): > 100 µM (inactive); GI50 (KM12): > 100 µM (inactive); GI50 (LOX IMVI): > 100 µM (inactive); GI50 (M14): > 100 µM (inactive); GI50 (MCF7): > 100 µM (inactive); GI50 (MDA-N): > 100 µM (inactive); GI50 (MOLT-4): > 100 µM (inactive); GI50 (Malme-3M): > 100 µM (inactive); GI50 (NCI-H226): > 100 µM (inactive); GI50 (NCI/ADR-RES): > 100 µM (inactive); GI50 (OVCAR-5): > 100 µM (inactive); GI50 (PC-3): > 100 µM (inactive); GI50 (RPMI-8226): > 100 µM (inactive); GI50 (SN12C): > 100 µM (inactive); GI50 (SNB-19): > 100 µM (inactive); GI50 (SW-620): > 100 µM (inactive); GI50 (UACC-62): > 100 µM (inactive)

Question: Which results are given for COc1ccc(NC(=O)CSc2nc(C)nc3c2sc(=S)n3-c2ccccc2)cc1?
Answer: GI50 (786-0): 3.39 µM (inactive); GI50 (IGROV-1): > 10 µM (inactive); GI50 (KM12): > 10 µM (inactive); GI50 (LOX IMVI): > 10 µM (inactive); GI50 (M14): 8.07 µM (inactive); GI50 (MCF7): 8.11 µM (inactive); GI50 (MDA-N): > 10 µM (inactive); GI50 (MOLT-4): > 10 µM (inactive); GI50 (Malme-3M): > 10 µM (inactive); GI50 (NCI-H226): 6.85 µM (inactive); GI50 (NCI/ADR-RES): 8.51 µM (inactive); GI50 (OVCAR-5): > 10 µM (inactive); GI50 (PC-3): > 10 µM (inactive); GI50 (RPMI-8226): > 10 µM (inactive); GI50 (SK-MEL-5): > 10 µM (inactive); GI50 (SN12C): > 10 µM (inactive); GI50 (SNB-19): > 10 µM (inactive); GI50 (SW-620): > 10 µM (inactive); GI50 (UACC-62): > 10 µM (inactive)

Question: Which results are given for COc1cc(O)c2c(c1)OCC1(Cc3cc(OC)c(OC)cc31)C2=O (stereo unspecified)?
Answer: GI50 (786-0): > 100 µM (inactive); GI50 (IGROV-1): > 100 µM (inactive); GI50 (KM12): > 100 µM (inactive); GI50 (LOX IMVI): 89.3 µM (inactive); GI50 (M14): > 100 µM (inactive); GI50 (MCF7): 31.8 µM (inactive); GI50 (MDA-N): 49.9 µM (inactive); GI50 (MOLT-4): 47.3 µM (inactive); GI50 (Malme-3M): 87.7 µM (inactive); GI50 (NCI-H226): 46 µM (inactive); GI50 (NCI/ADR-RES): 88.9 µM (inactive); GI50 (OVCAR-5): > 100 µM (inactive); GI50 (PC-3): > 100 µM (inactive); GI50 (RPMI-8226): 37.9 µM (inactive); GI50 (SK-MEL-5): 2.37 µM (inactive); GI50 (SN12C): > 100 µM (inactive); GI50 (SNB-19): > 100 µM (inactive); GI50 (SW-620): > 100 µM (inactive); GI50 (UACC-62): 63.2 µM (inactive); GI50 (UO-31): > 100 µM (inactive)
